# In patent US6448399B1, “Fused heteroaromatic glucokinase activators” (Hoffmann-La Roche Inc., priority 2000, dated 2002):
# Test system: C57BL/6J mice
# Assay: Glucokinase activator in vivo screen (blood glucose after oral dosing)
# Conditions: administered orally, 50 mg/kg, active = significant (p≦0.05) decrease in blood glucose vs vehicle at two consecutive time points
# Method: Glucokinase Activator in vivo Screen Protocol
# C57BL/6J mice are orally dosed via gavage with Glucokinase (GK) activator at 50 mg/kg body weight following a two hour fasting period. Blood glucose determinations are made five times during the six hour post-dose study period.
# Mice (n=6) are weighed and fasted for a two hour period prior to oral treatment. GK activators are formulated at 6.76 mg/ml in Gelucire vehicle (Ethanol:Gelucire44/14:PEG400q.s. 4:66:30 v/w/v. Mice are dosed orally with 7.5 μL formulation per gram of body weight to equal a 50 mg/kg dose. Immediately prior to dosing, a pre dose (time zero) blood glucose reading is acquired by snipping off a small portion of the animals tail (˜1 mm) and collecting 15 μL blood into a heparinized capillary tube for analysis. Following GK activator administration, additional blood glucose readings are taken at 1, 2, 4, and 6 hours post dose from the same tail wound. Results are interpreted by comparing the mean blood glucose values of six vehicle treated mice with six GK activator treated mice over the six hour study duration.
row,Compound,glucokinase activator in vivo activity
1,"CS(=O)(=O)c1ccc([C@@H](CC2CCCC2)C(=O)Nc2nc3ccccc3s2)cc1Cl [Example 19, N-Benzothiazol-2-yl-2(R)-(3-chloro-4-methanesulfonyl-phenyl)-3-cyclopentyl-propionamide]",excellent glucokinase activator in vivo activity
2,"CS(=O)(=O)c1ccc(C(CC2CCCC2)C(=O)Nc2nc3ccccc3[nH]2)cc1Cl (stereo not drawn) [Example 20, N-(1H-Benzoimidazol-2-yl)-2-(3-chloro-4-methanesulfonyl-phenyl)-3-cyclopentyl-propionamide]",excellent glucokinase activator in vivo activity
3,"CS(=O)(=O)c1ccc(C(CC2CCCC2)C(=O)Nc2ccc3ccccc3n2)cc1Cl (stereo not drawn) [Example 22, 2-(3-Chloro-4-methanesulfonyl-phenyl)-3-cyclopentyl-N-quinolin-2-yl-propionamide]",excellent glucokinase activator in vivo activity
